In patent US5648458A, “Peptides and compounds that bind to ELAM-1” (Affymax Technologies N.V., priority 1995, dated 1997):
Ends that are not written are not given here.

Molecular target: T1, immobilized ELAM-1 (Homo sapiens, UniProt P16581)
T1 construct: truncated form comprising the complete extracellular domain (amino acids 1 through 554); made in house
T1 sequence (P16581 22-554): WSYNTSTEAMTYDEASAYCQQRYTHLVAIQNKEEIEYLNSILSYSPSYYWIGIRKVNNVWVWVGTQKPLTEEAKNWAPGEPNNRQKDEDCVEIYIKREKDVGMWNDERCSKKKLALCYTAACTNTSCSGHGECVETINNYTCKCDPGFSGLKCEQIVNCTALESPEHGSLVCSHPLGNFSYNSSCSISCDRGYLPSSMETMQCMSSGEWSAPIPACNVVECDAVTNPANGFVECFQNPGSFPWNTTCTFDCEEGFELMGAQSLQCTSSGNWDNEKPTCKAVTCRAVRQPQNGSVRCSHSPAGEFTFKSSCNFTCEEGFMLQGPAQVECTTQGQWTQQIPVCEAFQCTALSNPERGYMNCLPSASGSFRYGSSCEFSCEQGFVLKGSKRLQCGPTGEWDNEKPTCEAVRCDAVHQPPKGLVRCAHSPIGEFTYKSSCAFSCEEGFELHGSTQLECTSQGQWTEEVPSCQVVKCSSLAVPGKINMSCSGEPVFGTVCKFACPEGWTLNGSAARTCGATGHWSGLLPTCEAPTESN
Format: cell-based
Conditions: 200000.0
Description: The assay requires HL60 cells labeled with tritiated thymidine. […] The cells are then placed in a T75 flask and incubated at 37° C. for 24 hours. The cells are then collected by centrifugation, washed twice with RPMI/HEPES/0.1% FCS, and resuspended in the same solution at a concentration of about one to two million cells per mL. About 100 μL of this cell preparation are used per well of a 96-well microtiter dish in the assay. The wells of the microtiter dish were first coated with the anti-receptor immobilizing antibody, an anti-HPAP-tail antibody, using about 2.5 μg of antibody per well. […] Then, the wells were washed three times with RPMI 1640 plus 0.1% FCS using a multichannel pipettor.

HITWDQLWNVMN
blocking of HL60 cell binding, relative to binding in the absence of added compound: over 80%
